Values quoted from earlier work as cited in US5559121A, “Rapamycin formulations for oral administration” (American Home Products Corporation, priority 1995, dated 1996).

Key:
adjuvant arthritis = conditions: Martel 1977
[1] = FASEB 3, 3411 (1989) and others
[2] = test system: smooth muscle cell proliferation and intimal thickening; conditions: Morris 1992
tumor = conditions: U.S. Pat. No. 4,885,171 (alone); U.S. Pat. No. 4,401,653 (with picibanil)
[3] = test system: experimental allergic encephalomyelitis; conditions: Martel 1977
[4] = test system: insulin dependent diabetes mellitus; conditions: Fifth Int. Conf. Inflamm. Res. Assoc. 121 (1990)
[5] = in vivo
IgE-like antibodies = conditions: Martel 1977
thymocyte proliferation = conditions: in vitro
allograft rejection = conditions: Calne 1989; Morris and Meiser 1989

Row | Compound | effectiveness in adjuvant arthritis model (adjuvant arthritis) | immunosuppressive effects [1] | preventing or treating smooth muscle cell proliferation and intimal thickening following vascular injury [2] | antitumor activity (tumor) | effectiveness in experimental allergic encephalomyelitis model [3] | preventing or treating insulin dependent diabetes mellitus [4] | immunosuppressive, antifungal and antiinflammatory activity [5] | inhibition of the formation of IgE-like antibodies (IgE-like antibodies) | effect on growth of Microsporum gypseum (Microsporum gypseum) | inhibition of thymocyte proliferation (thymocyte proliferation) | inhibiting rejection in vivo in allograft transplantation (allograft rejection) | effect on growth of Candida albicans (Candida albicans)
1 | CO[C@H]1C[C@@H]2CC[C@@H](C)[C@@](O)(O2)C(=O)C(=O)N2CCCC[C@H]2C(=O)O[C@H]([C@H](C)C[C@@H]2CC[C@@H](O)[C@H](OC)C2)CC(=O)[C@H](C)/C=C(\C)[C@@H](O)[C@@H](OC)C(=O)[C@H](C)C[C@H](C)/C=C/C=C/C=C/1C [Rapamycin, rapamycin] | effective | immunosuppressive effects | useful in preventing or treating | antitumor activity | effective | useful in preventing or treating | immunosuppressive, antifungal and antiinflammatory activity in vivo | effectively inhibited the formation of IgE-like antibodies | adversely affects the growth | inhibit thymocyte proliferation in vitro | effectiveness of rapamycin in inhibiting rejection in vivo | adversely affects the growth
2 | C=CC[C@@H]1/C=C(\C)C[C@H](C)C[C@H](OC)[C@H]2O[C@@](O)(C(=O)C(=O)N3CCCC[C@H]3C(=O)O[C@H](/C(C)=C/[C@@H]3CC[C@@H](O)[C@H](OC)C3)[C@H](C)[C@@H](O)CC1=O)[C@H](C)C[C@@H]2OC [FK-506] |  | effective as immunosuppressive agents |  |  |  |  |  |  |  |  |  | 
